Measured values taken from publication PMC8434099, “Selected Drug-Likeness Properties of 2-Arylidene-indan-1,3-dione Derivatives—Chemical Compounds with Potential Anti-Cancer Activity” (Molecules, 2021).

How the values were obtained:
[1] = Chromatographic (RP-HPLC) examination of lipophilicity, Snyder–Soczewiński model; format: physicochemical; settings: for logkw (ACN) / −S (ACN): acetonitrile as organic modifier; for Δ = |logkw-MeOH − logkw-ACN|: difference of logkw between modifiers
Procedure: The chromatographic analysis was carried out on a Shimadzu device equipped with a pump system (LC-20AD model), a detector with a diode bench (SPD-M20A model), a degasser (DGU-20A 5R model), a chromatographic oven (CTO-10AS VP), autosampler (SIL-20AC HT model), and chromatographic column (LiChrospher 100 RP-18, 5 μm, Poznań, Poland). Analyses were performed, leading to a multicratic elution. The mobile phase was methanol (J. T. Backer, Phillipsburg, NJ, USA) or acetonitrile (J. T. Backer) and water (Hydrolab, HPL5UV model, Straszyn, Poland) in different volume ratios. In individual analyses, the concentration of the organic modifier expressed as a […] was 0.75–0.95 with a constant step of 0.05. The test compounds were dissolved in methanol. The injection volume was 10 µL. The flow was set at 1 mL/min, the temperature of the chromatography oven at 25 °C, and the detector temperature at 2 °C higher than the ambient temperature. Compounds were detected in the range 190–800 nm. All samples were tested in duplicate at least. Column dead time (tM) was determined using uracil (Sigma Aldrich). The retention coefficient was calculated using the following formula:(1) k=tR/tM−1, where tR is the retention time of the test compound in a given eluent composition, and tM is the chromatographic column dead time.
The value of lipophilicity was determined using the linear dependence of the decimal logarithm from the retention coefficient (logk) and the concentration of the organic modifier in the mobile phase, which was expressed as a volume fraction. For this purpose, the following formula was used:(2) logk=logkw+Sφ, where logk is the decimal logarithm of the retention coefficient, logkw is the value obtained by extrapolating the curve, S is the slope of the regression curve, and φ is the volume fraction of the organic modifier.
The coefficient of determination (R^2) was also calculated for the prepared curves.

[2] = system: Human Serum Albumin (HSA); assay: Binding to albumin, fluorescence quenching; settings: calculated from association constant KS for albumin concentration in blood of 44 mg/mL (660 μM); for fraction unbound: human, human serum albumin solution (10 µM HSA), pH 7.4, read-out: free fraction (albumin)
Procedure: Fluorescence lifetime and fluorescence intensity of HSA solutions were measured using the time-resolved Fluorescence Spectrophotometer Life Spec II (Edinburgh Instruments Ltd., Livingston, UK) with the sub-nanosecond pulsed EPLED diode emitting a light of the wavelength 280 nm. The spectrometer was equipped with electronically cooled photomultiplier Hamamatsu R928 connected with TCC900 PC Card, which incorporates all the electronic modules required for Time-Correlated Single Photon Counting (TCSPC). The fluorescence decays were recorded at an emission wavelength of 350 nm. The data were fitted with an exponential decay to obtain total fluorescence intensity and lifetime. Measurements were performed at room temperature using quartz cuvettes 3.5 × 10 mm. The exposure time of the sample was 30 s. A spectrophotometer Jasco V-550 was used for absorption measurements.
Human Serum Albumin (HSA, 97%) was purchased from Sigma Aldrich. For the fluorescence quenching measurements, the 10 µM PBS solution of HSA at pH 7.4 was prepared, and 10 mM stock solutions of studied compounds were prepared in DMSO (dimethylsulfoxide). The final concentration of studied compounds in HSA solution varied between 0 and 70 µM.
Fluorescence quenching of albumin can be described by the Stern–Volmer Equation [21]: (3) F0/F=KSV[Q]+1, where F0 and F are the fluorescence intensities in the absence and presence of quencher, respectively, [Q] is the concentration of quencher, and KSV is the Stern–Volmer quenching constant.
Due to the fact that a quencher can absorb light at the excitation and/or emission wavelengths, the measured intensity should be corrected according to the Formula [22]:(4) Fobserved=Fcorrect×10^−Aex×dex/2−Aem×dem/2, where Fobserved is the measured fluorescence, Fcorrect is the fluorescence that would be measured in the absence of absorption effect, Aex and Aem are the absorbances of ligand at the excitation (280 nm) and emission wavelength (350 nm), respectively, and dex and dem are the cuvette pathlength in the excitation and emission direction (0.35 cm and 1 cm, respectively).
As the fluorophore can be quenched by collisions or by complex formation with the quencher, there are two types of quenching: dynamic and static. They can be distinguished by lifetime measurements. […] If the quenching is known to be dynamic, then:(5) F0/F=KD[Q]+1=τ0/τ, where τ0 and τ are the lifetimes in the absence and presence of quencher, and KD is the dynamic quenching constant.
In many cases, both static and dynamic quenching occurs for the same fluorophore, then modified Stern–Volmer equation has the form:(6) F0/F=(KD[Q]+1)(KS[Q]+1)=τ0/τ(KS[Q]+1),
The dynamic portion of the quenching (KD[Q] + 1), according to Equation (5), can be determined by lifetime measurements. The portion (KS[Q] + 1) relates to static quenching, and KS is the association constant, which is given by:(7) KS=[F−Q]/[F][Q], where [F−Q] is the concentration of complex fluorophore–quencher, [F] is the concentration of uncomplexed fluorophore (concentration of free HSA molecules), and [Q] is the concentration of quencher.
In this study, the tested compounds were added to the HSA solution, and the fluorescence intensity and lifetime at 350 nm were measured for varying concentrations of ligands. On the basis of absorbance measurements of ligands at 280 nm and 350 nm, the correct fluorescence intensities were estimated using Equation (4). Then, the Stern–Volmer constants, dynamic quenching constants, and association constants of studied compounds were determined using Equations (3), (5) and (6), respectively.
Knowing the value of association constant KS, it is possible to determine the theoretical percentage of the bound and free fraction of the drug for the physiological concentration of albumin. […]

B16F10 cells = assay: Antiproliferative activity, MTT protocol; format: cell-based, mouse; settings: 0.01 mg/mL, 72 h, relative to control culture
Procedure: (§1) Mouse melanoma (B16F10), human lung carcinoma (A549), and human cervix (HeLa) cell lines (kindly gifted by Prof. Tomasz Drewa, a Chair of Urology, Department of Regenerative Medicine, Collegium Medicum, Nicolaus Copernicus University, Bydgoszcz, Poland) were cultivated at 37 °C, controlled CO2 atmosphere (Binder, Tuttlingen, Germany), and high humidity with RPMI cell culture medium (with L-glutamine and sodium bicarbonate, Sigma-Aldrich), supplemented with 10% of fetal bovine serum (FBS, Biowest, Nuaillé, France), as well as antibiotics (penicillin, streptomycin) and antimycotics (amphotericin B) (Sigma-Aldrich). Combretastatin A4 (CA4), doxorubicin (DoX), and […] were purchased from Sigma-Aldrich.
Cells were counted with an automated cell counter (Countess® II FL, Invitrogen by Thermo Fisher Scientific Inc., Waltham, MA, USA). […] Absorbance readout was conducted using plate reader Multiskan Spectrum (Thermo Electron Corporation, Waltham, MA, USA) at 570 nm.
(§2) Combretastatin A4 (CA4), doxorubicin (DX), and […] were employed as positive controls. Biological evaluation was performed as three independent experiments; mean response and standard deviation were calculated using Excel software (v. 2013, Microsoft Corporation, Redmond, WA, USA).

HeLa cells = assay: Antiproliferative activity, MTT protocol; format: cell-based, human; settings: 0.01 mg/mL, 72 h
Procedure: as §1
(§3) Cells were counted with an automated cell counter (Countess® II FL, Invitrogen by Thermo Fisher Scientific Inc., Waltham, MA, USA). A number of 1 × 10^3 (B16F10, A549) or 2.5 × 10^3 cells were plated in each well of 96-well plate (Nunc Edge 2F, Thermo Fisher Scientific Inc.) and left for 24 h incubation prior to drug administration. After this period, the medium was replaced with a fresh medium containing the drugs (at final concentration of 0.01 mg/mL) and left for incubation for the next 72 h. A solution of thiazol blue tetrazolium (MTT, Sigma-Aldrich) was prepared in PBS at concentration of 5 mg/mL and administrated to the cell culture medium at the volume of 10% of the initial medium volume. After 2 h of incubation, the medium was removed, and crystals of formazan were solubilized in isopropanol (Sigma-Aldrich). Absorbance readout was conducted using plate reader Multiskan Spectrum (Thermo Electron Corporation, Waltham, MA, USA) at 570 nm.
as §2

A549 cells = assay: Antiproliferative activity, MTT protocol; format: cell-based, human; settings: 0.01 mg/mL, 72 h, relative to control culture
Procedure: as §1, §3, §2

[3] = RP-HPLC, extrapolated Snyder–Soczewiński curve
[4] = slope of the Snyder–Soczewiński regression curve

SMILES	logkw (ACN) [1, 3]	logkw (MeOH) ([1]; RP-HPLC, methanol as organic modifier, extrapolated Snyder–Soczewiński curve)	Δ = |logkw-MeOH − logkw-ACN| [1]	−S (ACN) [1, 4]	−S (MeOH) ([1]; slope of the Snyder–Soczewiński regression curve, methanol as organic modifier)	bound fraction (albumin) [2]	fraction unbound [2]	Response of B16F10 cells (in words) (B16F10 cells)	Number of HeLa cells compared to the control culture (HeLa cells)	Effect on HeLa cells (in words) (HeLa cells; relative to control culture)	Inhibition of development and division of A549 cells (in words) (A549 cells)
O=C1C(=Cc2cccc3ccccc23)C(=O)c2ccccc21 [Compound 3F, 2-[(naphthalen-1-yl)methylidene]-1H-indene-1,3(2H)-dione]	2.6107	3.9640	1.3533	2.7449	3.8549	93%	0.07	responded best			
COc1ccc2c(OC)ccc(C=C3C(=O)c4ccccc4C3=O)c2c1 [Compound 3G, 2-[(4,7-dimethoxynaphthalen-1-yl)methylidene]-1H-indene-1,3(2H)-dione]	2.8533		1.7531	2.8762		88%	0.12		7.15 ± 3.12%	more effective than the control compounds	most strongly inhibited
